In this test the test system is anaesthetized dog. Kind of test: Antiangorous activity on anaesthetized dog: consumption of oxygen in the left ventricule and cardiac effort (KATZ's index). Format: in vivo. As to conditions: for inhibition in vivo at 0.625 mg/kg / inhibition in vivo at 2.5 mg/kg / inhibition in vivo at […] / inhibition in vivo at 1.25 mg/kg / inhibition in vivo at 10 mg/kg: Canis lupus familiaris, iv; for inhibition in vivo at […]: 0.15 mg/kg i.v. slow perfusion. The method, then: The antiangorous activity was tested on an anaesthetized dog (sodium pentobarbital 30 mg/kg/i.v.).
The consumption of oxygen in the left ventricule was estimated by the product of the coronary venous flow and the coronary arteriovenous difference in oxygen (% volume).
The coronary venous flow was measured at the coronary venous sinus by means of a modified Morawitz cannula, introduced under radioscopic control.
The cardiac effort was estimated according to KATZ's index, by the product of the average arterial pressure and the cardiac frequency.
The cardiac frequency was estimated from the electrocardiogram recorded with D2 derivation.
It should be noted that the compounds tested were injected intravenously with slow perfusion.

Setting [1] is: 0.625 mg/kg i.v. slow perfusion.
The mark [2] stands for this setting: 0.625 mg/kg i.v. slow perfusion, read-out: Diminution in consumption of O2.
Where [3] appears, read: 0.625 mg/kg i.v. slow perfusion, read-out: Diminution in the cardiac effort (IK).
Where [4] appears, read: 2.5 mg/kg i.v. slow perfusion, read-out: Diminution in consumption of O2.
The mark [5] stands for this setting: 2.5 mg/kg i.v. slow perfusion, read-out: Diminution in the cardiac effort (IK).
[6] abbreviates: read-out: Diminution in consumption of O2.
Setting [7] is: read-out: Diminution in the cardiac effort (IK).
Setting [8] is: 1.25 mg/kg i.v. slow perfusion, read-out: Diminution in consumption of O2.
Where [9] appears, read: 1.25 mg/kg i.v. slow perfusion, read-out: Diminution in the cardiac effort (IK).

The source of these data is patent publication US4178442A, “Novel cinnamoyles piperazines and homopiperazines, the method of preparing them and their application in therapeutics” (Delalande S. A., priority 1977, dated 1979).

Structures are written as SMILES. Read-outs that look alike come from different tables or passages of the source.

Take `COc1cc(/C=C/C(=O)N2CCN(CC(O)COc3c(OC)cc(C(C)=O)cc3OC)CC2)cc(OC)c1OC` (centres unmarked) [780 359]: under setting [1], the “Diminution in consumption of O2: in time” value came to 45 min and the “Diminution in the cardiac effort (IK): in time” value (“Diminution in the cardiac effort” below) turned out to be 30 min. For the same compound, under setting [2], the inhibition in vivo at 0.625 mg/kg was found to be 60%. Under setting [3], the inhibition in vivo at 0.625 mg/kg amounted to 32%.
In the case of `COc1cc(/C=C/C(=O)N2CCN(CC(O)COc3ccc(C(=O)c4ccccc4)cc3)CC2)cc(OC)c1OC` (centres unmarked) [771 318], the “Diminution in consumption of O2: in time” value (2.5 mg/kg i.v. slow perfusion) stood at 60 min. Further, under “2.5 mg/kg i.v. slow perfusion”, the “Diminution in the cardiac effort” value is on record as 15 min. Further, the inhibition in vivo at 2.5 mg/kg runs as follows: under setting [4], 63%; under setting [5], 31%.
As for `COc1cc(/C=C/C(=O)N2CCN(CC(O)COc3ccc(C(C)=O)c4c3OCCCO4)CC2)cc(OC)c1OC` (centres unmarked) [780 241], the inhibition in vivo at […] reads like this: under setting [6], 30%; under setting [7], 13%.
In the case of `COc1cc(/C=C/C(=O)N2CCN(CC(O)COc3ccc(NC(C)=O)c4c3CCC4)CC2)cc(OC)c1OC` (centres unmarked) [771 306], for the setting “1.25 mg/kg i.v. slow perfusion”, the “Diminution in consumption of O2: in time” value was 15 min and the “Diminution in the cardiac effort” value is 30 min. Under setting [8], the inhibition in vivo at 1.25 mg/kg amounted to 58%. The inhibition in vivo at 1.25 mg/kg under setting [9] came out at 38%.
Turning to `COc1cc(/C=C/C(=O)N2CCN(CC(O)COc3ccc(C(=O)OC4CCCCC4)c4c3OCCO4)CC2)cc(OC)c1OC` (centres unmarked) [780 333], the inhibition in vivo at […] amounted to 51% under setting [6] and 21% under setting [7].
With `COc1cc(/C=C/C(=O)N2CCN(CC(O)COc3ccc(OC)c4c3OCCO4)CC2)cc(OC)c1OC` (centres unmarked) [780 009], the “Diminution in consumption of O2: in time” value (1.25 mg/kg i.v. slow perfusion) came to 35 min. Further, the “Diminution in the cardiac effort” value (1.25 mg/kg i.v. slow perfusion) turned out to be 30 min. For the same compound, the inhibition in vivo at 1.25 mg/kg is, setting by setting: under setting [8], 48%; under setting [9], 20%.
As to `COc1cc(/C=C/C(=O)N2CCN(CC(O)COc3ccc(NC(C)=O)c4c3OCO4)CC2)cc(OC)c1OC` (centres unmarked) [780 346], the inhibition in vivo at […] was 43% under setting [6] and 2% under setting [7].
Regarding `CNC(=O)Nc1cc(Cl)c(OCC(O)CN2CCN(C(=O)/C=C/c3cc(OC)c(OC)c(OC)c3)CC2)c(Cl)c1` (centres unmarked) [780 292], the “Diminution in consumption of O2: in time” value (2.5 mg/kg i.v. slow perfusion) is on record as 90 min. In addition, the “Diminution in the cardiac effort” value (2.5 mg/kg i.v. slow perfusion) turned out to be 45 min. The inhibition in vivo at 2.5 mg/kg worked out at 59% under setting [4] and 34% under setting [5].
Taken in the same sequence, the figures for `COc1cc(C#N)ccc1OCC(O)CN1CCN(C(=O)/C=C/c2cc(OC)c(OC)c(OC)c2)CC1` (centres unmarked) [771 281] were 30 min, 30 min, 23% and 44%.
On to `COc1cc(/C=C/C(=O)N2CCN(CC(O)COc3ccc(C(=O)OC(C)(C)C)c4c3OCCO4)CC2)cc(OC)c1OC` (centres unmarked) [780 369], for which, under setting [1], the “Diminution in consumption of O2: in time” value turned out to be 15 min and the “Diminution in the cardiac effort” value is listed as 15 min. Also, the inhibition in vivo at 0.625 mg/kg under setting [2] was determined as 37%. Besides, the inhibition in vivo at 0.625 mg/kg under setting [3] was 4%.
Regarding `COc1cc(/C=C/C(=O)N2CCN(CC(O)COc3ccc(C(C)=O)c4c3CCC4)CC2)cc(OC)c1OC` (centres unmarked) [760 852], under “2.5 mg/kg i.v. slow perfusion”, the “Diminution in consumption of O2: in time” value is 30 min and the “Diminution in the cardiac effort” value turned out to be 45 min. The inhibition in vivo at 2.5 mg/kg under setting [4] stood at 44%. Also, the inhibition in vivo at 2.5 mg/kg under setting [5] stood at 23%.
In the case of `COc1cc(/C=C/C(=O)N2CCN(CC(O)COc3ccc(C(C)=O)cc3F)CC2)cc(OC)c1OC` (centres unmarked) [780 353], the “Diminution in consumption of O2: in time” value (2.5 mg/kg i.v. slow perfusion) is reported as 15 min. The “Diminution in the cardiac effort” value (2.5 mg/kg i.v. slow perfusion) is 15 min. The inhibition in vivo at 2.5 mg/kg by setting is: under setting [4], 46%; under setting [5], 16%.
With `COc1cc(C=O)ccc1OCC(O)CN1CCN(C(=O)/C=C/c2cc(OC)c(OC)c(OC)c2)CC1` (centres unmarked) [780 329], the “Diminution in consumption of O2: in time” value (2.5 mg/kg i.v. slow perfusion) is 30 min. In addition, the “Diminution in the cardiac effort” value (2.5 mg/kg i.v. slow perfusion) was found to be 30 min. In addition, the inhibition in vivo at 2.5 mg/kg under setting [4] amounted to 21% and the inhibition in vivo at 2.5 mg/kg under setting [5] was determined as 13%.
Turning to `CCCCc1oc2ccccc2c1C(=O)c1cc(I)c(OCCN(CC)CC)c(I)c1` [AMIODARONE, reference compound], under “10 mg/kg i.v. slow perfusion”, the “Diminution in consumption of O2: in time” value is on record as 15 min and the “Diminution in the cardiac effort” value came out at 15 min. The inhibition in vivo at 10 mg/kg (10 mg/kg i.v. slow perfusion, read-out: Diminution in consumption of O2) is 11%. The inhibition in vivo at 10 mg/kg (10 mg/kg i.v. slow perfusion, read-out: Diminution in the cardiac effort (IK)) turned out to be 22%.
With `COc1cc(/C=C/C(=O)N2CCN(CC(O)COc3ccc(NC(=O)N4CCOCC4)c4c3OCCO4)CC2)cc(OC)c1OC` (centres unmarked) [771 149], the inhibition in vivo at […] is, setting by setting: under setting [6], 12%; under setting [7], 14%.
As to `COc1cc(/C=C/C(=O)N2CCCN(CC(O)COc3ccc(NC(C)=O)c4c3OCCO4)CC2)cc(OC)c1OC` (centres unmarked) [780 272], where the note is “2.5 mg/kg i.v. slow perfusion”, the “Diminution in consumption of O2: in time” value came out at 90 min and the “Diminution in the cardiac effort” value turned out to be 90 min. Moreover, the inhibition in vivo at 2.5 mg/kg under setting [4] was determined as 40%. In addition, the inhibition in vivo at 2.5 mg/kg under setting [5] stood at 51%.
As to `CNC(=O)Nc1ccc(OCC(O)CN2CCN(C(=O)/C=C/c3cc(OC)c(OC)c(OC)c3)CC2)c2c1CCC2` (centres unmarked) [771 153], for the setting “2.5 mg/kg i.v. slow perfusion”, the “Diminution in consumption of O2: in time” value was 23 min and the “Diminution in the cardiac effort” value turned out to be 40 min. The inhibition in vivo at 2.5 mg/kg under setting [4] came out at 31%. Moreover, the inhibition in vivo at 2.5 mg/kg under setting [5] came to 63%.
For the compound `CNC(=O)Nc1ccc(OCC(O)CN2CCN(C(=O)/C=C/c3cc(OC)c(OC)c(OC)c3)CC2)c2c1OCCCO2` (centres unmarked) [780 456], under setting [1], the “Diminution in consumption of O2: in time” value came to 15 min and the “Diminution in the cardiac effort” value came out at 30 min. Also, the inhibition in vivo at 0.625 mg/kg under setting [2] came to 13%. The inhibition in vivo at 0.625 mg/kg under setting [3] was 32%.
For `COc1cc(/C=C/C(=O)N2CCN(CC(O)COc3ccc(NC(C)=O)c4ccccc34)CC2)cc(OC)c1OC` (centres unmarked) [771 036], the “Diminution in the cardiac effort” value (2.5 mg/kg i.v. slow perfusion) was determined as 15 min. For the same compound, the inhibition in vivo at 2.5 mg/kg by setting is: under setting [4], 15%; under setting [5], 25%.
Consider `CCOC(=O)c1cc(OC)c(OCC(O)CN2CCN(C(=O)/C=C/c3cc(OC)c(OC)c(OC)c3)CC2)c(OC)c1` (centres unmarked) [780 361], for which, where the note is “2.5 mg/kg i.v. slow perfusion”, the “Diminution in consumption of O2: in time” value was 30 min. The “Diminution in the cardiac effort” value (2.5 mg/kg i.v. slow perfusion) is reported as 45 min. Moreover, the inhibition in vivo at 2.5 mg/kg is 68% under setting [4] and 38% under setting [5].
Taken in the same sequence, the figures for `COc1cc(/C=C/C(=O)N2CCN(CC(O)COc3ccc(C(C)=O)c4c3CCCC4)CC2)cc(OC)c1OC` (centres unmarked) [780 128] were 23 min, 23 min, 57% and 17%.
Taken in the same sequence, the figures for `CNC(=O)Nc1cc(OC)c(OCC(O)CN2CCN(C(=O)/C=C/c3cc(OC)c(OC)c(OC)c3)CC2)c(OC)c1` (centres unmarked) [780 357] were 15 min, 15 min, 43% and 21%.
Consider `COc1cc(C(C)=O)ccc1OCC(O)CN1CCCN(C(=O)/C=C/c2cc(OC)c(OC)c(OC)c2)CC1` (centres unmarked) [780 269], for which the “Diminution in consumption of O2: in time” value (2.5 mg/kg i.v. slow perfusion) amounted to 30 min. Moreover, the “Diminution in the cardiac effort” value (2.5 mg/kg i.v. slow perfusion) came out at 60 min. In addition, the inhibition in vivo at 2.5 mg/kg by setting is: under setting [4], 34%; under setting [5], 40%.
Taken in the same sequence, the figures for `CCCC(=O)c1ccc(OCC(O)CN2CCN(C(=O)/C=C/c3cc(OC)c(OC)c(OC)c3)CC2)cc1` (centres unmarked) [780 302] were 30 min, 30 min, 46% and 14%.
For the compound `COc1cc(/C=C/C(=O)N2CCN(CCCOc3ccc(NC(C)=O)c4c3OCCO4)CC2)cc(OC)c1OC` [771 172], for the setting “2.5 mg/kg i.v. slow perfusion”, the “Diminution in consumption of O2: in time” value stood at 15 min and the “Diminution in the cardiac effort” value is on record as 23 min. In addition, the inhibition in vivo at 2.5 mg/kg under setting [4] was 25%. In addition, the inhibition in vivo at 2.5 mg/kg under setting [5] came to 29%.
Taken in the same sequence, the figures for `COc1cc(/C=C/C(=O)N2CCN(CC(O)COc3ccc(C(C)=O)cc3OC)CC2)cc(OC)c1` (centres unmarked) [780 404] were 15 min, 30 min, 69% and 44%.
With `COc1cc(/C=C/C(=O)N2CCN(CC(O)COc3ccc(Cl)cc3C)CC2)cc(OC)c1OC` (centres unmarked) [770 966], the “Diminution in the cardiac effort” value (2.5 mg/kg i.v. slow perfusion) stood at 30 min. Besides, the inhibition in vivo at 2.5 mg/kg reads like this: under setting [4], 7%; under setting [5], 46%.
On to `CNC(=O)Nc1ccc(OCC(O)CN2CCN(C(=O)/C=C/c3cc(OC)c(OC)c(OC)c3)CC2)c(Cl)c1` (centres unmarked) [780 189], for which, for the setting “2.5 mg/kg i.v. slow perfusion”, the “Diminution in consumption of O2: in time” value was determined as 30 min and the “Diminution in the cardiac effort” value is 45 min. The inhibition in vivo at 2.5 mg/kg under setting [4] came out at 63%. Moreover, the inhibition in vivo at 2.5 mg/kg under setting [5] amounted to 30%.
In the case of `COc1cc(/C=C/C(=O)N2CCN(CC(O)CSc3ccc(C(C)=O)c4c3OCCO4)CC2)cc(OC)c1OC` (centres unmarked) [780 384], the inhibition in vivo at […] under setting [6] was 43% and the inhibition in vivo at […] under setting [7] came to 25%.
